Consider six molecules from patent US20210220300A1 (Strongbridge Dublin Limited, priority 2019, published 2021).

SMILES strings stand for the structures. Read-outs that look alike come from different tables or passages of the source.

The subject of data set [1] is BCRP. Put plainly: BCRP inhibition: bidirectional transport of prazosin across MDCKII BCRP and control cells. As to conditions: for % control: corrected efflux ratio, prazosin 1 μM. An excerpt:
MDCKII P-gp, MDCKII BCRP and control MDCKII cells were purchased from the Netherlands Cancer Institute.

Data set [2] concerns the target T1, P-gp (Homo sapiens, UniProt P08183). Put plainly: P-gp inhibition: bidirectional transport of digoxin across Caco-2 cells. For orientation: Caco-2 cells form a polarised layer with tight junctions and transporters.
For data set [3], the target named is T2, MATE1 (Homo sapiens, UniProt Q96FL8).
T2 sequence (Q96FL8 1-570): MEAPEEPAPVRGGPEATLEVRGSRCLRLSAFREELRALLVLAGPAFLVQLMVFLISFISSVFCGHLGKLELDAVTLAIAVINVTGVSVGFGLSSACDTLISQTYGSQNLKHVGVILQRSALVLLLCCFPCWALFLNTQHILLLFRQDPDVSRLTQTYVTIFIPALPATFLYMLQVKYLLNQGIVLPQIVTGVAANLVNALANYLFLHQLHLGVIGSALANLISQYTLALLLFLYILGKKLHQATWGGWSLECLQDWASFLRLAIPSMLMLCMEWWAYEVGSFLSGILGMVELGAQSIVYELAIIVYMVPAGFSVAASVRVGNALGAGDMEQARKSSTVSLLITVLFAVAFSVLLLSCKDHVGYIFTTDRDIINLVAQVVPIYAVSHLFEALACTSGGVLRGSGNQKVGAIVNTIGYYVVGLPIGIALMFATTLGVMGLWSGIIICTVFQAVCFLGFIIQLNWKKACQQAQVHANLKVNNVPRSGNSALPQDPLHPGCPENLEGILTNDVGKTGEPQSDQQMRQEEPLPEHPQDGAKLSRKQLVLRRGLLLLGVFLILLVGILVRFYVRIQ
As to conditions: pH 8.5. The procedure:
(§1) [^14C]-Metformin (1 mM) was provided as a solid and was prepared in Hank's balanced salt solution (HBSS).
(§2) Cells were plated onto standard 24-well tissue culture plates in cell culture medium 1 to 3 days before the experiment. MATE1 and MATE2-K and control cells were incubated with butyric acid (10 mM) for 24 hours before the experiment to inhibit suppression of the transporter.

For data set [4], the target named is MATE2-K (Homo sapiens, UniProt Q86VL8). As to conditions: pH 8.5. The procedure:
as §1, §2

The target in data set [5] is T1, P-gp.
For data set [6] the following is noted: cited from earlier work.
For data set [7] the following is noted: cited from earlier work. This is another data set of the same source.
For data set [8], the target named is T3, OCT1 (Homo sapiens, UniProt O15245).
T3 sequence (O15245 1-554): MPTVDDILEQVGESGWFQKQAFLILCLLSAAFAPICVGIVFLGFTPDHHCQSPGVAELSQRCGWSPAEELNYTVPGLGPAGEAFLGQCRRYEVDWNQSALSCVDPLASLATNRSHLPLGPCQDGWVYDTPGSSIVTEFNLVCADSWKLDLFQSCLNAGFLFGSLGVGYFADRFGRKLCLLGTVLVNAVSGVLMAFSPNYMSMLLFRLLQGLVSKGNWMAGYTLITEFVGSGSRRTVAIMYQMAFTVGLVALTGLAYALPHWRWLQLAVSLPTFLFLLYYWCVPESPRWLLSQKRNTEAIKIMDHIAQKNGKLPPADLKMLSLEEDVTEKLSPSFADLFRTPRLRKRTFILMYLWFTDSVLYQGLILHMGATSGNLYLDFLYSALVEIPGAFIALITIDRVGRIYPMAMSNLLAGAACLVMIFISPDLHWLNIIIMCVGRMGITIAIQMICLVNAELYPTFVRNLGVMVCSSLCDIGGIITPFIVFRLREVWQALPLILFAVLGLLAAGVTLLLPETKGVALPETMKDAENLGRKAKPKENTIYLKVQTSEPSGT
As to conditions: for Uptake (Average ± SD), Control / Uptake (Average ± SD), OCT1 / Background corrected uptake rate: human, pH 7.4. The procedure:
as §1, §2

Chain of MATE2-K (Q86VL8 1-566 isoform Q86VL8-3): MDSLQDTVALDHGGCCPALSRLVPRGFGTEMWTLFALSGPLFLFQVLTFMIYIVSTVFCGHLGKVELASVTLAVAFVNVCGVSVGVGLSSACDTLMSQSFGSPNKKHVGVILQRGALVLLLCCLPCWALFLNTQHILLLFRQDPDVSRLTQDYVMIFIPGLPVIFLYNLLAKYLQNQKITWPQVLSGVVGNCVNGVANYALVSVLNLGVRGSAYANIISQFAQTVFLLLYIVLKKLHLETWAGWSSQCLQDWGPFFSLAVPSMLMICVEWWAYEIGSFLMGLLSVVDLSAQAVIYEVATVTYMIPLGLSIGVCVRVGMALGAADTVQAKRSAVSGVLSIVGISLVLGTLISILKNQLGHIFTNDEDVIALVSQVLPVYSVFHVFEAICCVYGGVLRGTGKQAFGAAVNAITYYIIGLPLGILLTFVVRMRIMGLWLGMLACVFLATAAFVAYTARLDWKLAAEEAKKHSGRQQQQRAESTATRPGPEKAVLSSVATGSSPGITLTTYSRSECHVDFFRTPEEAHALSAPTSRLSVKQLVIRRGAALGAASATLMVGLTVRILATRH
T1 sequence (P08183 whole entry): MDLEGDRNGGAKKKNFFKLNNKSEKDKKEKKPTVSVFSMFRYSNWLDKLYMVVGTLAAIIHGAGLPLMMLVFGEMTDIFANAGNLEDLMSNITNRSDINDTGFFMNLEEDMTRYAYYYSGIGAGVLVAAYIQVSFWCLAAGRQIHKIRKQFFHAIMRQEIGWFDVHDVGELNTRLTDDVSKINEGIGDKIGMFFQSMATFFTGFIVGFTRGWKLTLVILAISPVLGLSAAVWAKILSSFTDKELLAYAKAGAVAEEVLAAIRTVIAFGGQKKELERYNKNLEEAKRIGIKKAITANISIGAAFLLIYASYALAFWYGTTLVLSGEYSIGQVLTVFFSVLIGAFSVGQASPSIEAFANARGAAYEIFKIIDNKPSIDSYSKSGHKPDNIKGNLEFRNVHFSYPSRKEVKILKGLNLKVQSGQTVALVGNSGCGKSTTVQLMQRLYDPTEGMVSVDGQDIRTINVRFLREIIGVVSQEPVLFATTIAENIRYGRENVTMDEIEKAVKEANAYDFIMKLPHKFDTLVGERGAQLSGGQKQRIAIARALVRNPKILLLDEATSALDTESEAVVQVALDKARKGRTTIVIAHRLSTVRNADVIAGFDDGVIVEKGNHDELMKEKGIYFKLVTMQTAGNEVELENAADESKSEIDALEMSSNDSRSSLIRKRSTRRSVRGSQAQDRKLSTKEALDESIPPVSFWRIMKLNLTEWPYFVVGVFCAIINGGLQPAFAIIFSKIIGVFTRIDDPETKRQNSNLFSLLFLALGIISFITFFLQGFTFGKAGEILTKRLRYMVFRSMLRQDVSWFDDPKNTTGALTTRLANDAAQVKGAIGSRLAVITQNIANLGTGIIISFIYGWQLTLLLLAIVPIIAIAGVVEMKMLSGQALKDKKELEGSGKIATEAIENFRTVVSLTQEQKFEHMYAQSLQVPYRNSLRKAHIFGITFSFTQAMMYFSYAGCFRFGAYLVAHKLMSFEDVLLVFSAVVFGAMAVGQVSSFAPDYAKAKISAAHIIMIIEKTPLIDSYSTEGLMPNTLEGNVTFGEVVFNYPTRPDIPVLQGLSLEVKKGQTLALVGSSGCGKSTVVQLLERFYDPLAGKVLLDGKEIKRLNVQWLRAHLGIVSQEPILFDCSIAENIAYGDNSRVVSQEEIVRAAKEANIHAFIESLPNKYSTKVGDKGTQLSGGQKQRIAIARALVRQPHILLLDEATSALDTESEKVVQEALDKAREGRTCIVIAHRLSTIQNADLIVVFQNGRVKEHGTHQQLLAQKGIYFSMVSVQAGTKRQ

In the case of `Cc1cccc(C)c1OCC(=O)N[C@@H](Cc1ccccc1)[C@@H](O)C[C@H](Cc1ccccc1)NC(=O)[C@H](C(C)C)N1CCCNC1=O` [Lopinavir], the “% control” value in data set [1] (inhibitor 30 μM) is given as 0%.

Regarding `C/C=C/C[C@@H](C)C(=O)[C@H]1C(=O)N[C@@H](C(C)C)C(=O)N(C)CC(=O)N(C)[C@@H](CC(C)C)C(=O)N[C@@H](C(C)C)C(=O)N(C)[C@@H](CC(C)C)C(=O)N[C@@H](C)C(=O)N[C@H](C)C(=O)N(C)[C@@H](CC(C)C)C(=O)N(C)[C@@H](CC(C)C)C(=O)N(C)[C@@H](C(C)C)C(=O)N1C` [Valspodar], in data set [2], the “Papp A:B of digoxin (Average ± SD)” value is on record as 9.12 ± 1.34 × 10^−6 cm/sec and the “Papp B:A of digoxin (Average ± SD)” value is listed as 10.0 ± 2.5 × 10^−6 cm/sec.

For `CCc1nc(N)nc(N)c1-c1ccc(Cl)cc1` [Pyrimethamine], in data set [3] (0.1 μM), the “Background corrected uptake rate” value is listed as 11.7 pmol/mg/min; the “Uptake (Average ± SD), Control” value is on record as 4.24 ± 0.72 pmol/mg protein; the “Uptake (Average ± SD), MATE1” value turned out to be 62.8 ± 4.0 pmol/mg protein. For the same molecule, in data set [4] (0.3 μM), the “Background corrected uptake rate” value is 14.0 pmol/mg/min; the “Uptake (Average ± SD), Control” value was 5.59 ± 0.88 pmol/mg protein; the “Uptake (Average ± SD), MATE2-K” value was 75.6 ± 16.7 pmol/mg protein.

With `NS(=O)(=O)c1cc(Cl)c(Cl)c(S(N)(=O)=O)c1` [Dichlorphenamide, 4,5-dichloro-1,3-benzenedisulfonamide], the “Papp A:B of digoxin (Average)” value in data set [5] (Caco-2) is 0.337 (n = 2) × 10^−6 cm/sec. In addition, the “% control” value in data set [5] (human, 120 min, 3 μM) is 74.0%; in data set [1] (inhibitor 1000 μM), 60.0%; in data set [8] ([14C]-tetraethylammonium bromide 5 μM, inhibitor 10 μM), 90.6%. Moreover, the “Control cells Recovery (%) A:B” value in data set [1] (dog, MDCK, 120 min, 1000 μM) was 84.7%. The “Control cells Recovery (%) B:A” value in data set [1] (dog, MDCK, 120 min, 1000 μM) turned out to be 77.0%. The “MDCKII-BCRP cells Recovery (%) A:B” value in data set [1] (human, 120 min, 1000 μM) is 93.0%. In addition, the “MDCKII-BCRP cells Recovery (%) B:A” value in data set [1] (human, 120 min, 1000 μM) was 83.7%. In addition, in data set [6], the “Solubility in dilute solutions of sodium carbonate and sodium hydroxide” value is “soluble”. Moreover, in data set [7], the Storage stability entry is recorded as “at least 36 months”. Moreover, the “Uptake (Average ± SD), Control” value stood at 6.66 ± 1.31 pmol/mg protein in data set [3] (1 μM); 6.75 ± 1.65 pmol/mg protein in data set [3] (3 μM); 7.43 ± 1.34 pmol/mg protein in data set [3] (10 μM); 6.79 ± 0.89 pmol/mg protein in data set [3] (30 μM); 7.52 ± 0.96 pmol/mg protein in data set [3] (100 μM); 5.56 ± 0.16 pmol/mg protein in data set [3] (300 μM). In addition, the “Uptake (Average ± SD), Control” value in data set [3] (1000 μM) was 5.52 ± 0.21 pmol/mg protein; in data set [8] (1 μM), 4.28 ± 1.48 pmol/mg protein; in data set [8] (3 μM) it was 4.44 ± 1.97 pmol/mg protein; in data set [8] (10 μM) it was 4.28 ± 0.92 pmol/mg protein; in data set [8] (30 μM), 3.88 ± 0.48 pmol/mg protein; in data set [8] (100 μM) it was 4.12 ± 0.73 pmol/mg protein. For the same molecule, the “Uptake (Average ± SD), Control” value worked out at 3.88 ± 1.11 pmol/mg protein in data set [8] (300 μM); 2.99 ± 1.46 pmol/mg protein in data set [8] (1000 μM); 9.21 ± 0.93 pmol/mg protein in data set [4] (1 μM); 9.44 ± 2.27 pmol/mg protein in data set [4] (3 μM); 8.28 ± 1.46 pmol/mg protein in data set [4] (10 μM); 8.51 ± 1.05 pmol/mg protein in data set [4] (30 μM). For the same molecule, the “Uptake (Average ± SD), Control” value in data set [4] (100 μM) is 9.21 ± 1.52 pmol/mg protein; in data set [4] (300 μM) it was 8.86 ± 0.93 pmol/mg protein; in data set [4] (1000 μM), 5.13 ± 0.40 pmol/mg protein. Further, the “Uptake (Average ± SD), MATE1” value stood at 436 ± 23 pmol/mg protein in data set [3] (1 μM); 401 ± 7 pmol/mg protein in data set [3] (3 μM); 406 ± 12 pmol/mg protein in data set [3] (10 μM); 432 ± 10 pmol/mg protein in data set [3] (30 μM); 421 ± 17 pmol/mg protein in data set [3] (100 μM); 398 ± 17 pmol/mg protein in data set [3] (300 μM). Besides, the “Uptake (Average ± SD), MATE1” value in data set [3] (1000 μM) was determined as 379 ± 13 pmol/mg protein. The “Uptake (Average ± SD), OCT1” value is listed as 121 ± 11 pmol/mg protein in data set [8] (1 μM); 125 ± 5 pmol/mg protein in data set [8] (3 μM); 111 ± 4 pmol/mg protein in data set [8] (10 μM); 122 ± 14 pmol/mg protein in data set [8] (30 μM); 128 ± 6 pmol/mg protein in data set [8] (100 μM); 130 ± 10 pmol/mg protein in data set [8] (300 μM). The “Uptake (Average ± SD), OCT1” value in data set [8] (1000 μM) came to 77.9 ± 3.0 pmol/mg protein. The “Background corrected uptake rate” value in data set [8] (300 μM) is 8.40 pmol/mg/min; in data set [8] (1000 μM) it was 5.00 pmol/mg/min. The “Uptake (Average ± SD), MATE2-K” value in data set [4] (1 μM) is listed as 149 ± 29 pmol/mg protein; in data set [4] (3 μM), 159 ± 19 pmol/mg protein; in data set [4] (10 μM), 113 ± 8 pmol/mg protein; in data set [4] (30 μM), 124 ± 36 pmol/mg protein; in data set [4] (100 μM) it was 137 ± 15 pmol/mg protein; in data set [4] (300 μM) it was 166 ± 16 pmol/mg protein. Also, the “Uptake (Average ± SD), MATE2-K” value in data set [4] (1000 μM) was determined as 106 ± 29 pmol/mg protein.

For `CN/C(=N/CCSCc1nc[nH]c1C)NC#N` [Cimetidine], in data set [3] (10 μM), the “Uptake (Average ± SD), Control” value was determined as 5.20 ± 0.63 pmol/mg protein and the “Uptake (Average ± SD), MATE1” value amounted to 85.2 ± 7.8 pmol/mg protein. Moreover, in data set [4] (300 μM), the “Uptake (Average ± SD), Control” value is given as 7.34 ± 0.20 pmol/mg protein and the “Uptake (Average ± SD), MATE2-K” value is on record as 32.3 ± 11.7 pmol/mg protein.

In the case of `C=C[C@H]1C[N@@]2CC[C@H]1C[C@@H]2[C@@H](O)c1ccnc2ccc(OC)cc12` [Quinidine], the “Background corrected uptake rate” value in data set [8] (100 μM) is reported as 1.64 pmol/mg/min.
